# Calls of active or inactive are those of the source. The calls are words filed in the database; no cut-off is given here.
# Columns and labels:
# Mus musculus [1] = test: Anticonvulsant activity in ip dosed 6-Hz induced seizure mouse model assessed as restoration of normal activity within 10 secs from stimulation at 44 mA; assay type: functional
# Mus musculus [2] = test: Anticonvulsant activity in ip dosed pentylenetetrazole induced seizure mouse model; assay type: functional
# Rattus norvegicus [3] = test: Anticonvulsant activity in po dosed pentylenetetrazole induced seizure rat model; assay type: functional
# [4] = Displacement of [35S]dATPaS from rat cerebral cortex P2Y receptor measured after 60 mins by scintillation counting method
# [5] = Displacement of [125I]Tyr11-somatostatin-14 from Sst receptor in mouse AtT-20 cells measured after 60 mins by scintillation counting method; assay type: cell-based; conditions: att20
# Mus musculus [6] = test: Anticonvulsant activity in ip dosed maximal electroshock induced seizure mouse model assessed as suppression in hindlimb tonic extension by measuring time to peak effect; assay type: functional
# Rattus norvegicus [7] = test: Neurotoxicity in Sprague-Dawley rat assessed as behavioral change at 30 mg/kg, po measured at […] post dose; assay type: toxicity, organism-based; conditions: in vivo
# Mus musculus [8] = test: Anticonvulsant activity in maximal electroshock induced seizure mouse model assessed as suppression in hindlimb tonic extension at 30 mg/kg, ip measured at 4 hrs post dose; assay type: functional, organism-based
# Mus musculus [9] = test: Anticonvulsant activity in maximal electroshock induced seizure mouse model assessed as suppression in hindlimb tonic extension at 100 mg/kg, ip measured at 4 hrs post dose; assay type: functional, organism-based
# Mus musculus [10] = test: Anticonvulsant activity in maximal electroshock induced seizure mouse model assessed as suppression in hindlimb tonic extension at 300 mg/kg, ip measured at 4 hrs post dose; assay type: functional, organism-based
# Mus musculus [11] = test: Neurotoxicity in mouse assessed as induction of motor impairment at 30 mg/kg, ip measured at 0.5 hrs post dose by rotarod method; assay type: toxicity, organism-based; conditions: in vivo
# Mus musculus [12] = test: Neurotoxicity in mouse assessed as induction of motor impairment at 30 mg/kg, ip measured at 4 hrs post dose by rotarod method; assay type: toxicity, organism-based; conditions: in vivo
# Mus musculus [13] = test: Neurotoxicity in mouse assessed as induction of motor impairment at 300 mg/kg, ip measured at 4 hrs post dose by rotarod method; assay type: toxicity, organism-based; conditions: in vivo
# Mus musculus [14] = test: Anticonvulsant activity in 6-Hz induced seizure mouse model assessed as restoration of normal activity within 10 secs from stimulation at 100 mg/kg, ip at 32 mA measured at 4 hrs post dose; assay type: functional, organism-based
# Rattus norvegicus [15] = test: Anticonvulsant activity in maximal electroshock induced seizure Sprague-Dawley rat model assessed as suppression in hindlimb tonic extension at 30 mg/kg, po measured at 2 hrs post dose; assay type: functional, organism-based
# Rattus norvegicus [16] = test: Neurotoxicity in Sprague-Dawley rat assessed as behavioral change at 30 mg/kg, po measured at 1 hr post dose; assay type: toxicity, organism-based; conditions: in vivo
# Rattus norvegicus [17] = test: Neurotoxicity in Sprague-Dawley rat assessed as behavioral change at 30 mg/kg, po measured at 0.5 hrs post dose; assay type: toxicity, organism-based; conditions: in vivo
# Rattus norvegicus [18] = test: Neurotoxicity in Sprague-Dawley rat assessed as behavioral change at 30 mg/kg, po measured at 2 hrs post dose; assay type: toxicity, organism-based; conditions: in vivo
# Rattus norvegicus [19] = test: Neurotoxicity in Sprague-Dawley rat assessed as behavioral change at 30 mg/kg, po measured at 4 hrs post dose; assay type: toxicity, organism-based; conditions: in vivo
# Rattus norvegicus [20] = test: Neurotoxicity in Sprague-Dawley rat assessed as behavioral change at 30 mg/kg, ip measured at […] post dose; assay type: toxicity, organism-based; conditions: in vivo
# Rattus norvegicus [21] = test: Neurotoxicity in Sprague-Dawley rat assessed as behavioral change at 30 mg/kg, ip measured at 0.5 hrs post dose; assay type: toxicity, organism-based; conditions: in vivo
# Rattus norvegicus [22] = test: Neurotoxicity in Sprague-Dawley rat assessed as behavioral change at 30 mg/kg, ip measured at 1 hr post dose; assay type: toxicity, organism-based; conditions: in vivo
# Rattus norvegicus [23] = test: Neurotoxicity in Sprague-Dawley rat assessed as behavioral change at 30 mg/kg, ip measured at 2 hrs post dose; assay type: toxicity, organism-based; conditions: in vivo
# Rattus norvegicus [24] = test: Neurotoxicity in Sprague-Dawley rat assessed as behavioral change at 30 mg/kg, ip measured at 4 hrs post dose; assay type: toxicity, organism-based; conditions: in vivo
# Mus musculus [25] = test: Anticonvulsant activity in ip dosed pentylenetetrazole induced seizure mouse model assessed as no observable episode of clonic convulsion of at least 5 secs by measuring time to peak effect; assay type: functional
# Mus musculus [26] = test: Neurotoxicity in ip dosed mouse assessed as induction of motor impairment by measuring time to peak effect by rotarod method; assay type: toxicity, organism-based; conditions: in vivo
# Mus musculus [27] = test: Anticonvulsant activity in ip dosed maximal electroshock induced seizure mouse model assessed as suppression in hindlimb tonic extension; assay type: functional
# Mus musculus [28] = test: Anticonvulsant activity in ip dosed pentylenetetrazole induced seizure mouse model assessed as no observable episode of clonic convulsion of at least 5 secs; assay type: functional
# [29] = Neurotoxicity in ip dosed mouse; assay type: toxicity, organism-based; conditions: in vivo
# [30] = Protection index, ratio of TD50 for neurotoxicity in ip dosed mouse to ED50 for ip dosed maximal electroshock induced seizure mouse model; assay type: toxicity, organism-based; conditions: in vivo, read-out: Ratio TD50/ED50
# [31] = Protection index, ratio of TD50 for neurotoxicity in ip dosed mouse to ED50 for ip dosed pentylenetetrazole induced seizure mouse model; assay type: toxicity, organism-based; conditions: in vivo, read-out: Ratio TD50/ED50
# [32] = Displacement of [3H]TCP from rat cerebral cortex phencyclidine receptor measured after 120 mins by scintillation counting method
# [33] = Displacement of [3H]batrachotoxinin from rat cerebral cortex sodium channel site 2 measured after 60 mins by scintillation counting method
# [34] = Displacement of [3H]D888 from rat cerebral cortex calcium channel L type verapamil binding site measured after 120 mins by scintillation counting method
# [35] = Displacement of [35S]TBPS from rat cerebral cortex GABA-gated chloride channel measured after 60 mins by scintillation counting method
# [36] = Displacement of [3H]a,b-MeATP from rat urinary bladder P2X receptor measured after 120 mins by scintillation counting method
# [37] = molecular target: Vasoactive intestinal polypeptide receptor 1 (Homo sapiens, UniProt P32241); test: Displacement of [125I]VIP from human recombinant VPAC1 receptor expressed in CHO cells measured after 60 mins by scintillation counting method; assay type: cell-based
# Chain of Vasoactive intestinal polypeptide receptor 1 (P32241 whole entry): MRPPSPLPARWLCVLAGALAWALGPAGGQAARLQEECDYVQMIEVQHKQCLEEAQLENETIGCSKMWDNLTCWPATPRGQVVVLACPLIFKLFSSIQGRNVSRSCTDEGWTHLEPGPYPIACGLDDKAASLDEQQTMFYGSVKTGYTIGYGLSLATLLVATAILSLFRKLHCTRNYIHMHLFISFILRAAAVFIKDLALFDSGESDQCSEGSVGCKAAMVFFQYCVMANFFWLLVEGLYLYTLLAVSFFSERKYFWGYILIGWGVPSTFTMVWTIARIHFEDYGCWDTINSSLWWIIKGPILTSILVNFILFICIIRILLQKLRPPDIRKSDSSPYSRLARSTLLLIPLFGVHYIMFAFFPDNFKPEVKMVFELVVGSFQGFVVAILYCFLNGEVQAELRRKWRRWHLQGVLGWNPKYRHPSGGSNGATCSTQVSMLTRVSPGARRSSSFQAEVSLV
compound,measurement,setting,value
CCCC(CCC)C(=O)O [VALPROIC ACID],ED50,Mus musculus [1],310 mg/kg
same,ED50,Mus musculus [2],220 mg/kg
same,ED50,Rattus norvegicus [3],646 mg/kg
Nc1ncnc2c1ncn2[C@H]1C[C@H](O)[C@@H](COP(O)(=S)OP(=O)(O)OP(=O)(O)O)O1 (some centres not stated),IC50,[4],29 nM
C[C@H](N)C(=O)NCC(=O)N[C@H]1CSSC[C@@H](C(=O)O)NC(=O)[C@H](CO)NC(=O)[C@H]([C@@H](C)O)NC(=O)[C@H](Cc2ccccc2)NC(=O)[C@H]([C@@H](C)O)NC(=O)[C@H](CCCCN)NC(=O)[C@H](Cc2c[nH]c3ccccc23)NC(=O)[C@H](Cc2ccccc2)NC(=O)[C@H](Cc2ccccc2)NC(=O)[C@H](CC(N)=O)NC(=O)[C@H](CCCCN)NC1=O [SOMATOSTATIN],IC50,[5],0.074 nM
O=C(/C=C/c1ccc(Cl)cc1)N[C@H]1CC[C@H](O)CC1,Time,Mus musculus [6],2 h
same,Activity,Rattus norvegicus [7],Non-Toxic
same,Activity,Mus musculus [8],Active
same,Activity,Mus musculus [9],Active
same,Activity,Mus musculus [10],Active
same,Activity,Mus musculus [11],Non-Toxic
same,Activity,Mus musculus [12],Non-Toxic
same,Activity,Mus musculus [13],Non-Toxic
same,Activity,Mus musculus [14],Active
same,Activity,Rattus norvegicus [15],Active
same,Activity,Rattus norvegicus [16],Non-Toxic
same,Activity,Rattus norvegicus [17],Non-Toxic
same,Activity,Rattus norvegicus [18],Non-Toxic
same,Activity,Rattus norvegicus [19],Non-Toxic
same,Activity,Rattus norvegicus [20],Non-Toxic
same,Activity,Rattus norvegicus [21],Non-Toxic
same,Activity,Rattus norvegicus [22],Non-Toxic
same,Activity,Rattus norvegicus [23],Non-Toxic
same,Activity,Rattus norvegicus [24],Non-Toxic
same,Time,Mus musculus [25],2 h
same,Time,Mus musculus [26],6 h
same,ED50,Mus musculus [27],186 mg/kg
same,ED50,Mus musculus [28],317 mg/kg
same,TD50,[29],> 600 mg/kg
same,selectivity ratio,[30],> 3.22
same,selectivity ratio,[31],> 1.9
C[C@]12N[C@H](Cc3ccccc31)c1ccccc12 [DIZOCILPINE],IC50,[32],4.6 nM
COc1ccc(C(=O)O[C@H]2CC[C@@]3(C)[C@H]4CC[C@H]5[C@]6(O)C[C@H](O)[C@@]7(O)[C@@H](CN8C[C@@H](C)CC[C@H]8[C@@]7(C)O)[C@]6(O)C[C@@]53O[C@@]24O)cc1OC,IC50,[33],4000 nM
COc1ccc(CCN(C)CCCC(C#N)(c2cc(OC)c(OC)c(OC)c2)C(C)C)cc1OC (configuration not stated) [GALLOPAMIL],IC50,[34],15 nM
C=C(C)[C@@H]1[C@H]2OC(=O)[C@@H]1[C@]1(O)C[C@H]3O[C@]34C(=O)O[C@H]2[C@]14C [PICROTOXININ],IC50,[35],77 nM
Nc1ncnc2c1ncn2[C@@H]1O[C@H](COP(=O)(O)CP(=O)(O)OP(=O)(O)O)[C@@H](O)[C@H]1O [DIPHOSPHOMETHYLPHOSPHONIC ACID ADENOSYL ESTER],IC50,[36],1.9 nM
H-HSDAVFTDNYTRLRKQLAVKKYLNSILN-NH2,IC50,[37],0.11 nM

# Reference: ChEMBL document CHEMBL3875185, “Structure-anticonvulsant activity studies in the group of (E)-N-cinnamoyl aminoalkanols derivatives monosubstituted in phenyl ring with 4-Cl, 4-CH3 or 2-CH3” (Bioorg Med Chem, 2017)
